We go through 6 compounds from patent US5371077A, “Side chain derivatized 15-oxygenated sterols, methods of using them and a process for preparing them” (William Marsh Rice University, priority 1992, dated 1994).

The subject of one experiment is HMG-CoA reductase. The experiment in a line: Effects of sterols on HMG-CoA reductase activity in CHO-K1 cells. Conditions: 4 hours. It counts as cell-based. The procedure:
Effects of side chain derivatized 15-oxygenated sterols on HMG-CoA reductase activity in CHO-K1 cells
The effects of the sterols on HMG-CoA reductase activity were determined on CHO-K1 cells. The cells were obtained from the American Type Culture Collection (Rockville, Md.). (3RS)-[3-^14 C]HMG-CoA (56 mCi per mmol) and (3RS)-[2-^3 H]mevalonolactone (176 mCi per mmol) were purchased from Amersham Corporation (Arlington Heights, Ill.). Lux tissue culture plasticware was from Miles Scientific (Elkhart, Ind.). Trypsin was obtained from Gibco Laboratories (Grand Island, N.Y.) and Ham's F12 medium, Proc. Natl. Acad. Sci. U.S.A., 53, 288-293 (1965), and phosphate buffered saline (PBS; KCl, 2.7 mM; KH2 PO4, 1.2 mM; NaCl, 137 mM; and Na2 HPO4, 8.1 mM) were obtained from Irvine Scientific (Irvine, Calif.). Fetal calf serum was purchased from Whittaker M.A. Bioproducts (Elkhart, Ind.).
For cell culture experiments, the sterols and C24 acid were added as ethanolic solutions to Ham's F12 medium supplemented with 5% delipidated fetal calf serum (lipid-deficient medium) and allowed to equilibrate for at least 6 hours at room temperature prior to storage at 4° C. Protein in detergent-solubilized extracts of cultured cells was assayed by the Peterson modification, Anal. Biochem., 83, 346-356, of the method of Lowry et al., J. Biol. Chem, 193, 265-275.
The CHO-K1 cells were maintained in Ham's F12 medium supplemented with 5% fetal calf serum (lipid-rich medium) in a humidified atmosphere of 5% CO2 -95% air at 37° C. Each experiment was initiated by inoculating […] cells into 100-mm dishes containing the lipid-rich medium (10 ml), followed by incubating for 48 hours. The medium was aspirated and, after rinsing the plates with PBS (10 ml), the cells were incubated for 18 hours in lipid-deficient media (10 ml). The cells were then incubated with fresh lipid-deficient media (10 ml) containing various concentrations of the 15-oxygenated sterols (from 0.0 μM to 2.5 μM) for 4 hours. Cells were harvested by scraping, and detergent-solubilized cell preparations were obtained for assay of HMG-CoA reductase activity using the method of Brown, Dana and Goldstein, J. Biol. Chem, 249, 789-796. Replicate assays (n=3) were carried out as described by Pinkerton et al., J. Biol. Chem, 257, 1929-1936, except that the specific activity of (3RS)-[3-^14 C]HMG-CoA was 20,000 dpm per nmol.

A short description of experiment [1]: Effects of dietary administration of F7-15-ketosterol to rats: serum sterols. Conditions: rat. It counts as in vivo, rats (Sprague-Dawley, male). An excerpt:
Effects of dietary administration of side chain derivatized 15-oxygenated sterols to rats
Male rats (100-140 g) of the Sprague-Dawley strain were obtained from Harlan Sprague-Dawley (Houston, Tex.) and housed in pairs for 6 days on a light (6:00 AM-6:00 PM)--dark cycle and fed a ground basal diet (Purina Formulab 5008) and water ad libitum. The animals were then divided into groups of 8 animals each, such that the mean values of serum cholesterol and body weight were approximately the same. The animals were then housed individually and were provided diet and water ad libitum. Blood for serum sterol concentrations was obtained at ^~ 8:00 AM from tail vein on days 5 and 9.
The experiment involved administration of 3β-hydroxy-25,26,26,26,27,27,27-heptafluoro-5α-cholest-8(14)-en-15-one (F7 -15-ketosterol) in basal diet as utilized previously in Schroepfer et al., Blochem. Biophys. Res. Commun., 78, 1227-233 (1977). 3β-Hydroxy-25,26,26,26,27,27,27-heptafluoro-5α-cholest-8(14)-en-15-one was administered at levels of 0.025%, 0.05%, 0.075, and 0.10% (by weight) in basal diet. Control rats received basal diet containing no added sterol.
Serum cholesterol was measured by two methods. Day 0 levels were determined using a commercial assay kit ("Single Vial"; Boehringer Mannheim Diagnostics, catalog no. 236691). This methodology could not be applied to the determination of serum cholesterol in serum samples of rats treated with 3β-hydroxy-25,26,26,26,27,27,27-heptafluoro-5α-cholest-8(14)-en-15-one due to the presence of another sterol which also acted as a substrate for cholesterol oxidase. Accordingly, cholesterol levels in serum were determined by gas chromatography (GC). Routine capillary GC analyses of sterols in serum were made on a 0.1 μm Rtx 1701 column (15 m×0.25 mm ID; 14% cyanopropylphenyl, 86% methyl polysiloxane; Restek Corp., Bellefonte, Pa.). Stigmasterol was used as an internal standard. In addition, recovery of sterol after saponification and extraction was monitored through the use of an internal standard of [7(n)-^3 H]cholesteryl oleate. Routine saponification of sample (100 μl) involved treatment with 10% KOH in ethanol (500 μl) followed by extraction with hexane (3×1.5 ml). After evaporation to dryness under nitrogen, the samples were treated with BSTFA-pyridine (1:1, 200 μl) for 1 hour at room temperature under nitrogen. After evaporation to dryness under nitrogen, the silylated material was dissolved in hexane (500 μl) and aliquots (1 μl) were subjected to GC analysis.

For the compound `C[C@H](CCC(=O)O)[C@H]1CC(=O)C2=C3CC[C@H]4C[C@@H](O)CC[C@]4(C)[C@H]3CC[C@@]21C` [I, 3β-hydroxy-15-keto-5α-chol-8(14)-en-24-oic acid], the “HMG-CoA reductase activity (% of control activity)” value in the experiment with HMG-CoA reductase (sterol concentration 0.1 μM) is 88.5 % of control activity; with HMG-CoA reductase (sterol concentration 0.25 μM), 77.3 % of control activity; in the experiment on HMG-CoA reductase (sterol concentration 0.5 μM) it was 69.9 % of control activity; with HMG-CoA reductase (sterol concentration 1.0 μM), 65.0 % of control activity; in the experiment with HMG-CoA reductase (sterol concentration 2.5 μM), 45.6 % of control activity.
Take `CC(C)=CCC[C@@H](C)[C@H]1CC(=O)C2=C3CC[C@H]4C[C@@H](O)CC[C@]4(C)[C@H]3CC[C@@]21C` [II, 3β-hydroxy-5α-cholesta-8(14),24-dien-15-one]: the “HMG-CoA reductase activity (% of control activity)” value in the experiment with HMG-CoA reductase (sterol concentration 0.1 μM) is recorded as 60.5 % of control activity; with HMG-CoA reductase (sterol concentration 0.25 μM) it was 67.0 % of control activity; in the experiment with HMG-CoA reductase (sterol concentration 0.5 μM) it was 51.1 % of control activity; with HMG-CoA reductase (sterol concentration 1.0 μM), 40.0 % of control activity; in the experiment with HMG-CoA reductase (sterol concentration 2.5 μM), 35.2 % of control activity.
The corresponding values for `C[C@H](CCCC(C)(C)O)[C@H]1CC(=O)C2=C3CC[C@H]4C[C@@H](O)CC[C@]4(C)[C@H]3CC[C@@]21C` [III, 3β,25-dihydroxy-5α-cholest-8(14)-en-15-one] are 66.4 % of control activity, 56.2 % of control activity, 50.2 % of control activity, 34.8 % of control activity and 23.7 % of control activity.
As to `CC(C)C(O)CC[C@@H](C)[C@H]1CC(=O)C2=C3CC[C@H]4C[C@@H](O)CC[C@]4(C)[C@H]3CC[C@@]21C` (stereo partly drawn) [IV, 3β,24-dihydroxy-5α-cholest-8(14)-en-15-one], the “HMG-CoA reductase activity (% of control activity)” value in the experiment on HMG-CoA reductase (sterol concentration 0.1 μM) is recorded as 63.4 % of control activity; in the experiment on HMG-CoA reductase (sterol concentration 0.25 μM) it was 33.5 % of control activity; in the experiment on HMG-CoA reductase (sterol concentration 0.5 μM), 32.2 % of control activity; in the experiment with HMG-CoA reductase (sterol concentration 1.0 μM), 34.2 % of control activity; with HMG-CoA reductase (sterol concentration 2.5 μM) it was 21.5 % of control activity.
For `C[C@H](CCCN(C)C)[C@H]1CC(=O)C2=C3CC[C@H]4C[C@@H](O)CC[C@]4(C)[C@H]3CC[C@@]21C` [V, 3β-hydroxy-24-dimethylamino-5α-chol-8(14)-en-15-one] the same measures were 87.1 % of control activity, 85.4 % of control activity, 73.3 % of control activity, 53.5 % of control activity and 35.0 % of control activity.
On to `C[C@H](CCCC(F)(C(F)(F)F)C(F)(F)F)[C@H]1CC(=O)C2=C3CC[C@H]4C[C@@H](O)CC[C@]4(C)[C@H]3CC[C@@]21C` [VI, 3β-hydroxy-25,26,26,26,27,27,27-heptafluoro-5α-cholest-8(14)-en-15-one], for which the “HMG-CoA reductase activity (% of control activity)” value with HMG-CoA reductase (sterol concentration 0.1 μM) is on record as 68.3 % of control activity; with HMG-CoA reductase (sterol concentration 0.25 μM) it was 49.1 % of control activity; in the experiment on HMG-CoA reductase (sterol concentration 0.5 μM) it was 35.6 % of control activity; with HMG-CoA reductase (sterol concentration 1.0 μM) it was 29.0 % of control activity; in the experiment on HMG-CoA reductase (sterol concentration 2.5 μM), 22.2 % of control activity. The “Serum Sterols: Cholesterol” value in experiment [1] (0.025% in diet, day 5, control 2.60 ± 0.12) came to 2.02 ± 0.12 mM; in experiment [1] (0.025% in diet, day 9, control 2.62 ± 0.06), 2.10 ± 0.10 mM; in experiment [1] (0.050% in diet, day 5, control 2.60 ± 0.12) it was 2.06 ± 0.07 mM; in experiment [1] (0.050% in diet, day 9, control 2.62 ± 0.06) it was 1.83 ± 0.07 mM; in experiment [1] (0.075% in diet, day 5, control 2.60 ± 0.12), 1.76 ± 0.05 mM; in experiment [1] (0.075% in diet, day 9, control 2.62 ± 0.06) it was 1.76 ± 0.12 mM. The “Serum Sterols: Cholesterol” value in experiment [1] (0.100% in diet, day 5, control 2.60 ± 0.12) is given as 1.97 ± 0.09 mM; in experiment [1] (0.100% in diet, day 9, control 2.62 ± 0.06), 1.90 ± 0.10 mM.
